“And” between values parts separate entries of the source, which are not always exact repeats. Equal entries are not always repeated. Toxic doses and inconclusive results are not listed.
System: CD2F1 mice, L1210 leukemia ip, survival T/C
Assay: NCI In Vivo Anticancer Drug Screen. Data for tumor model L1210 Leukemia (intraperitoneal) in CD2F1 (CDF1) mice
Settings: higher = longer survival
How it was run: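 In this screen, transplantable tumors were grown in mice given either the compound or its vehicle. Results were expressed as the treated measurement relative to the control measurement.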

[1] = endpoint: mean survival time, dose: 100.0 mg/kg/injection, schedule: Q01DX001 (ip), vehicle: saline with Tween-80
[2] = endpoint: mean survival time, dose: 200.0 mg/kg/injection, schedule: Q01DX001 (ip), vehicle: saline with Tween-80
[3] = endpoint: mean survival time, dose: 400.0 mg/kg/injection, schedule: Q01DX001 (ip), vehicle: saline with Tween-80
[4] = endpoint: mean survival time, dose: 100.0 mg/kg/injection, schedule: Q01DX009 (ip), vehicle: saline with Tween-80
[5] = endpoint: mean survival time, dose: 200.0 mg/kg/injection, schedule: Q01DX009 (ip), vehicle: saline with Tween-80
[6] = endpoint: mean survival time, dose: 400.0 mg/kg/injection, schedule: Q01DX009 (ip), vehicle: saline with Tween-80
[7] = endpoint: mean survival time, dose: 100.0 mg/kg/injection, schedule: Q04DX003 (ip), vehicle: saline with Tween-80
[8] = endpoint: mean survival time, dose: 200.0 mg/kg/injection, schedule: Q04DX003 (ip), vehicle: saline with Tween-80
[9] = endpoint: mean survival time, dose: 400.0 mg/kg/injection, schedule: Q04DX003 (ip), vehicle: saline with Tween-80
[10] = endpoint: mean survival time, dose: 6.25 mg/kg/injection, schedule: Q01DX001 (ip), vehicle: saline with Tween-80
[11] = endpoint: mean survival time, dose: 12.5 mg/kg/injection, schedule: Q01DX001 (ip), vehicle: saline with Tween-80
[12] = endpoint: mean survival time, dose: 25.0 mg/kg/injection, schedule: Q01DX001 (ip), vehicle: saline with Tween-80
[13] = endpoint: mean survival time, dose: 100.0 mg/kg/injection, schedule: Q04DX002 (ip), vehicle: saline with Tween-80
[14] = endpoint: mean survival time, dose: 200.0 mg/kg/injection, schedule: Q04DX002 (ip), vehicle: saline with Tween-80
[15] = endpoint: mean survival time, dose: 400.0 mg/kg/injection, schedule: Q04DX002 (ip), vehicle: saline with Tween-80
[16] = endpoint: mean survival time, dose: 100.0 mg/kg/injection, schedule: Q04DX002 (ip), vehicle: saline
[17] = endpoint: mean survival time, dose: 200.0 mg/kg/injection, schedule: Q04DX002 (ip), vehicle: saline
[18] = endpoint: mean survival time, dose: 100.0 mg/kg/injection, schedule: Q04DX003 (ip), vehicle: saline
[19] = endpoint: mean survival time, dose: 200.0 mg/kg/injection, schedule: Q04DX003 (ip), vehicle: saline
[20] = endpoint: mean survival time, dose: 400.0 mg/kg/injection, schedule: Q04DX003 (ip), vehicle: saline
[21] = endpoint: mean survival time, dose: 25.0 mg/kg/injection, schedule: Q01DX009 (ip), vehicle: saline with Tween-80
[22] = endpoint: mean survival time, dose: 50.0 mg/kg/injection, schedule: Q01DX009 (ip), vehicle: saline with Tween-80

With CCOC(=O)N/N=C/c1ccccc1 the T/C [1] was 103 % of control, the T/C [2] was 108 % of control and the T/C [3] was 110 % of control.

With CS(=O)(=O)C([N+](=O)[O-])S(C)(=O)=O the T/C (endpoint: mean survival time, dose: 100.0 mg/kg/injection, schedule: Q01DX001 (ip), vehicle: saline) was 101 % of control, the T/C (endpoint: mean survival time, dose: 200.0 mg/kg/injection, schedule: Q01DX001 (ip), vehicle: saline) was 101 % of control and the T/C (endpoint: mean survival time, dose: 400.0 mg/kg/injection, schedule: Q01DX001 (ip), vehicle: saline) was 97 % of control.

In the case of CCOC(=O)C(=CNc1cc(C)ccn1)C(=O)OCC, the T/C [4] is reported as 109 % of control, the T/C [5] is reported as 98 % of control and the T/C [6] is reported as 94 % of control.

With Cc1ccc(Sc2cccc3c(C)c4cccc5c4c(c23)C[S+]5c2ccc(C)cc2)cc1 (configuration not stated) the T/C (endpoint: mean survival time, dose: 6.25 mg/kg/injection, schedule: Q04DX003 (ip), vehicle: saline with Tween-80) was 98 % of control.

Cc1c(F)c(F)c(C(=O)O)c(F)c1F was tested, and the T/C [4] was 96 % of control, the T/C [7] was 100 % of control and the T/C [5] was 93 % of control. The T/C [8] was 101 % of control and the T/C [9] was 93 % of control.

In the case of COc1ccc(-c2ncn(-c3ccc(S(=O)(=O)O)cc3)c2-c2ccc(OC)cc2)cc1, the T/C (endpoint: mean survival time, dose: 100.0 mg/kg/injection, schedule: Q04DX003 (ip), vehicle: Klucel (hydroxypropylcellulose) (HPC)) is reported as 95 % of control, the T/C (endpoint: mean survival time, dose: 200.0 mg/kg/injection, schedule: Q04DX003 (ip), vehicle: Klucel (hydroxypropylcellulose) (HPC)) is reported as 95 % of control and the T/C (endpoint: mean survival time, dose: 400.0 mg/kg/injection, schedule: Q04DX003 (ip), vehicle: Klucel (hydroxypropylcellulose) (HPC)) is reported as 102 % of control.

N#CC1(C#N)OC(C#N)(C#N)c2ccccc21 was tested, and the T/C [10] was 102 % of control, the T/C [11] was 98 % of control and the T/C [12] was 98 % of control.

CC1CC(C)(C)N=C(C(C)CC2CCCCC2)O1 (configuration not stated) was tested, and the T/C [1] was 95 % of control and the T/C [2] was 93 % of control.

CN(C)C(=O)C(=O)C1C=Cc2ccccc21 (configuration not stated) was tested, and the T/C [4] was 98 % of control, the T/C [5] was 103 % of control and the T/C [6] was 93 % of control.

With CN(C)CCC(=O)c1cccc(O)c1 the T/C [13] was 104 % of control and the T/C [14] was 101 % of control.

For COc1cc2c(cc1OC)-c1nc(N)sc1CC2, the T/C [13] was 107 % of control, the T/C [14] was 98 % of control and the T/C [15] was 103 % of control.

For NS(=O)(=O)c1ccc(N2CCCCC2)c([N+](=O)[O-])c1, the T/C (endpoint: mean survival time, dose: 100.0 mg/kg/injection, schedule: Q01DX009 (ip), vehicle: other) was 95 % of control, the T/C [13] was 91 % of control and the T/C (endpoint: mean survival time, dose: 200.0 mg/kg/injection, schedule: Q01DX009 (ip), vehicle: other) was 95 % of control. For the same molecule, the T/C [14] was 98 % of control, the T/C (endpoint: mean survival time, dose: 400.0 mg/kg/injection, schedule: Q01DX009 (ip), vehicle: other) was 101 % of control and the T/C [15] was 100 % of control.

In the case of NNC(=O)Nc1ccccc1, the T/C [10] is reported as 102 % of control, the T/C [11] is reported as 102 % of control and the T/C [12] is reported as 97 % of control.

C=C(NC(=O)C(=C)NC(=O)c1csc(C2=NC3c4csc(n4)C4NC(=O)c5csc(n5)C(C(C)(O)C(C)O)NC(=O)C5CSC(=N5)/C(=C/C)NC(=O)C(C(C)O)NC(=O)c5csc(n5)C3(CC2)NC(=O)C(C)NC(=O)C(=C)NC(=O)C(C)NC(=O)C(C(C)CC)NC2C=Cc3c(C(C)O)cc(nc3C2O)C(=O)OC4C)n1)C(N)=O (configuration not stated) was tested, and the T/C (endpoint: mean survival time, dose: 118.0 mg/kg/injection, schedule: Q04DX003 (ip), vehicle: saline) was 117 % of control.

In the case of CC(C)C1=CC23CCC4C(C)(C(=O)O)CCCC4(C)C2CC13 (configuration not stated), the T/C [7] is reported as 103 % of control, the T/C [8] is reported as 97 % of control and the T/C [9] is reported as 97 % of control.

With Cc1cc(N=Nc2ccc(S(=O)(=O)[O-])cc2)cc(C(=O)[O-])c1[OH2+].Cc1cc(N=Nc2ccc(S(=O)(=O)[O-])cc2)cc(C(=O)[O-])c1[OH2+].NC1CCCCC1N.[Na+].[Pt+4] the T/C (endpoint: median survival time, dose: 6.25 mg/kg/injection, schedule: Q04DX003 (ip), vehicle: saline with Tween-80) was 172 % of control, the T/C (endpoint: median survival time, dose: 6.25 mg/kg/injection, schedule: Q04DX003 (ip), vehicle: saline) was 172 % of control and the T/C (endpoint: median survival time, dose: 12.5 mg/kg/injection, schedule: Q04DX003 (ip), vehicle: saline with Tween-80) was 344 % of control. For the same molecule, the T/C (endpoint: median survival time, dose: 12.5 mg/kg/injection, schedule: Q04DX003 (ip), vehicle: saline) was 253 % of control, the T/C (endpoint: median survival time, dose: 25.0 mg/kg/injection, schedule: Q04DX003 (ip), vehicle: saline with Tween-80) was 313 % of control and the T/C (endpoint: median survival time, dose: 25.0 mg/kg/injection, schedule: Q04DX003 (ip), vehicle: saline) was 289 % of control. For the same molecule, the T/C (endpoint: median survival time, dose: 50.0 mg/kg/injection, schedule: Q04DX003 (ip), vehicle: saline with Tween-80) was 106 % of control.

For N#CC(N)=O, the T/C [16] was 97 % of control, the T/C [17] was 91 % of control and the T/C (endpoint: mean survival time, dose: 400.0 mg/kg/injection, schedule: Q04DX002 (ip), vehicle: saline) was 94 % of control.

Nc1nc2c(ncn2-c2cccc(NC(=O)Nc3ccc(S(=O)(=O)F)c(Cl)c3)c2)c(=O)[nH]1 (tested in a mixture with another compound) was tested, and the T/C [1] was 97 % of control and the T/C [2] was 95 % of control.

With C/C(=N\n1cc(-c2ccccc2)nc1N)c1ccccc1 the T/C (endpoint: mean survival time, dose: 75.0 mg/kg/injection, schedule: Q01DX001 (ip), vehicle: saline) was 91 % of control, the T/C (endpoint: mean survival time, dose: 150.0 mg/kg/injection, schedule: Q01DX001 (ip), vehicle: saline) was 97 % of control and the T/C (endpoint: mean survival time, dose: 300.0 mg/kg/injection, schedule: Q01DX001 (ip), vehicle: saline) was 93 % of control.

For N#C/C(=N\Nc1ccc(S(=O)(=O)O)cc1)C(N)=O, the T/C [4] was 95 % of control, the T/C [5] was 91 % of control and the T/C [6] was 94 % of control.

O=S(=O)(O)SCc1ccccc1CSS(=O)(=O)O was tested, and the T/C [18] was 96 % of control, the T/C [19] was 101 % of control and the T/C [20] was 108 % of control.

In the case of O=[N+]([O-])c1ccc(Cn2cc[n+](Cc3ccc([N+](=O)[O-])cc3)c2)cc1, the T/C (endpoint: mean survival time, dose: 12.5 mg/kg/injection, schedule: Q01DX009 (ip), vehicle: saline with Tween-80) is reported as 98 % of control, the T/C [12] is reported as 108 % of control and the T/C [21] is reported as 90 % of control. For the same molecule, the T/C (endpoint: mean survival time, dose: 50.0 mg/kg/injection, schedule: Q01DX001 (ip), vehicle: saline with Tween-80) was 104 % of control, the T/C [22] was 93 % of control and the T/C [1] was 98 % of control.

In the case of CC(CCOP(N)(=O)N(CCCl)CCCl)OCc1ccccc1 (configuration not stated), the T/C (endpoint: mean survival time, dose: 25.0 mg/kg/injection, schedule: Q01DX001 (ip), vehicle: other) is reported as 98 % of control, the T/C (endpoint: mean survival time, dose: 50.0 mg/kg/injection, schedule: Q01DX001 (ip), vehicle: other) is reported as 101 % of control and the T/C (endpoint: mean survival time, dose: 100.0 mg/kg/injection, schedule: Q01DX001 (ip), vehicle: other) is reported as 106 % of control. For the same molecule, the T/C (endpoint: mean survival time, dose: 200.0 mg/kg/injection, schedule: Q01DX001 (ip), vehicle: other) was 115 % of control and the T/C (endpoint: mean survival time, dose: 500.0 mg/kg/injection, schedule: Q01DX001 (ip), vehicle: other) was 118 % of control.

For NN1CCCCC1, the T/C [16] was 103 % of control and the T/C [17] was 95 % of control.

In the case of O=P(Oc1ccccc1)(Oc1ccccc1)C(Nc1ccccc1)c1ccccc1 (configuration not stated), the T/C [4] is reported as 88 % of control, the T/C [5] is reported as 97 % of control and the T/C [6] is reported as 89 % of control.

With CO[C@@]12[C@@H]3N[C@@H]3CN1C1=C(C(=O)C(Nc3cccc(O)c3)=C(C)C1=O)[C@@H]2COC(N)=O the T/C (endpoint: median survival time, dose: 1.5 mg/kg/injection, schedule: Q01DX001 (ip), vehicle: water) was 113 % of control, the T/C (endpoint: median survival time, dose: 3.0 mg/kg/injection, schedule: Q01DX001 (ip), vehicle: water) was 119 % of control and the T/C (endpoint: median survival time, dose: 12.0 mg/kg/injection, schedule: Q01DX001 (ip), vehicle: water) was 122 % of control.

For O=[N+]([O-])c1ccccc1NS(=O)(=O)c1ccccc1, the T/C [1] was 100 % of control, the T/C [2] was 102 % of control and the T/C [3] was 107 % of control.

For COc1ccc(NC(=O)Oc2ccc(Cl)cc2Cl)cc1, the T/C [21] was 112 % of control, the T/C (endpoint: mean survival time, dose: 25.0 mg/kg/injection, schedule: Q04DX002 (ip), vehicle: saline with Tween-80) was 100 % of control and the T/C [22] was 112 % of control. For the same molecule, the T/C (endpoint: mean survival time, dose: 50.0 mg/kg/injection, schedule: Q04DX002 (ip), vehicle: saline with Tween-80) was 100 % of control, the T/C [4] was 101 % of control and the T/C [13] was 95 % of control and 98 % of control. The T/C [15] was 102 % of control.

Cc1cccc[n+]1[O-] was tested, and the T/C [18] was 101 % of control, the T/C [19] was 98 % of control and the T/C [20] was 88 % of control.
